From US4594329A, “CRF analogs” (The Salk Institute for Biological Studies, priority 1984, dated 1986)
Square brackets hold non-standard residues; d marks the D form. Peptide text beside a SMILES is read from it. Nle = CCCC[C@H](N)C(=O)O; Orn = NCCC[C@H](N)C(=O)O

Columns and labels:
[1] = test system: cultured rat pituitary cells; experiment: secretion of ACTH and β-endorphin by cultured rat pituitary cells; format: cell-based; details: general procedure of Example III
Protocol: (§1) The synthetic peptide AHC and oCRF were examined for their effects on the secretion of ACTH and β-endorphin in vitro and was also in vivo. The potency of synthetic oCRF to stimulate the secretion of ACTH and β-endorphin by cultured rat pituitary cells was measured using the procedure as generally set forth in Endocrinology, 91, 562 (1972). […] In vivo testing is carried out using the general procedure set forth in C. Rivier et al., Science, 218, 377 (1982).

[2] = lowering of blood pressure, in vivo testing; details: for lowering of blood pressure: general procedure of Example III
Protocol: as §1

Row | Molecule | secretion of ACTH and β-END-LI, amount relative to oCRF ([1]; % of oCRF) | lowering of blood pressure [2] | stimulates the secretion of ACTH and β-END-LI [1] | lowering of blood pressure compared with rCRF ([2]; comparison with rCRF)
1 | CCCC[C@H](NC(=O)[C@H](CCC(=O)O)NC(=O)[C@H](CC(C)C)NC(=O)[C@H](CCCC)NC(=O)[C@H](CCC(=O)O)NC(=O)[C@H](CCCNC(=N)N)NC(=O)[C@H](CC(C)C)NC(=O)[C@H](CC(C)C)NC(=O)[C@H](Cc1c[nH]cn1)NC(=O)[C@H](Cc1ccccc1)NC(=O)[C@@H](NC(=O)[C@H](CC(C)C)NC(=O)[C@H](CC(=O)O)NC(=O)[C@H](CC(C)C)NC(=O)[C@H](CO)NC(=O)[C@@H](NC(=O)[C@@H]1CCCN1C(=O)[C@H]1CCCN1C(=O)[C@H](N)Cc1ccc(O)cc1)[C@@H](C)CC)[C@@H](C)O)C(=O)N[C@@H](C)C(=O)N[C@@H](CCCCN)C(=O)N[C@@H](C)C(=O)N[C@@H](CCC(=O)O)C(=O)N[C@@H](CCC(N)=O)C(=O)N[C@@H](CCC(=O)O)C(=O)N[C@@H](C)C(=O)N[C@@H](CCC(=O)O)C(=O)N[C@@H](CCC(N)=O)C(=O)N[C@@H](C)C(=O)N[C@@H](C)C(=O)N[C@@H](CC(C)C)C(=O)N[C@@H](CC(N)=O)C(=O)N[C@@H](CCCNC(=N)N)C(=O)N[C@@H](CC(C)C)C(=O)N[C@@H](CC(C)C)C(=O)N[C@@H](CC(C)C)C(=O)N[C@@H](CCC(=O)O)C(=O)N[C@@H](CCC(=O)O)C(=O)N[C@@H](C)C(N)=O [[D-Tyr^3, D-Pro^4, Nle^18,21]-AHC(3-41)] (H-[dY][dP]PISLDLTFHLLRE[Nle]LE[Nle]AKAEQEAEQAALNRLLLEEA-NH2) | about 470% | very significant lowering of blood pressure | – | –
2 | CCCC[C@H](NC(=O)[C@H](CCC(=O)O)NC(=O)[C@H](CC(C)C)NC(=O)[C@H](CCCC)NC(=O)[C@H](CCC(=O)O)NC(=O)[C@H](CCCNC(=N)N)NC(=O)[C@H](CC(C)C)NC(=O)[C@H](CC(C)C)NC(=O)[C@H](Cc1c[nH]cn1)NC(=O)[C@H](Cc1ccccc1)NC(=O)[C@@H](NC(=O)[C@H](CC(C)C)NC(=O)[C@H](CC(=O)O)NC(=O)[C@H](CC(C)C)NC(=O)[C@H](CO)NC(=O)[C@@H](NC(=O)[C@@H]1CCCN1C(=O)[C@@H]1CCCN1C(=O)[C@H](N)Cc1ccc(O)cc1)[C@@H](C)CC)[C@@H](C)O)C(=O)N[C@@H](C)C(=O)N[C@@H](CCCCN)C(=O)N[C@@H](C)C(=O)N[C@@H](CCC(=O)O)C(=O)N[C@@H](CCC(N)=O)C(=O)N[C@@H](CCC(=O)O)C(=O)N[C@@H](C)C(=O)N[C@@H](CCC(=O)O)C(=O)N[C@@H](CCC(N)=O)C(=O)N[C@@H](C)C(=O)N[C@@H](C)C(=O)N[C@@H](CC(C)C)C(=O)N[C@@H](CC(N)=O)C(=O)N[C@@H](CCCNC(=N)N)C(=O)N[C@@H](CC(C)C)C(=O)N[C@@H](CC(C)C)C(=O)N[C@@H](CC(C)C)C(=O)N[C@@H](CCC(=O)O)C(=O)N[C@@H](CCC(=O)O)C(=O)N[C@@H](C)C(N)=O [[D-Tyr^3, Nle^18,21]-AHC(3-41)] (H-[dY]PPISLDLTFHLLRE[Nle]LE[Nle]AKAEQEAEQAALNRLLLEEA-NH2) | – | very significant lowering of blood pressure | stimulates the secretion of ACTH and β-END-LI | –
3 | CC[C@H](C)[C@H](NC(=O)[C@@H](NC(=O)[C@H](CCC(=O)O)NC(=O)[C@H](CC(C)C)NC(=O)[C@H](CC(C)C)NC(=O)[C@H](CCCCN)NC(=O)[C@H](CCCNC(=N)N)NC(=O)[C@H](CC(N)=O)NC(=O)[C@H](CO)NC(=O)[C@H](Cc1c[nH]cn1)NC(=O)[C@H](C)NC(=O)[C@H](CCC(N)=O)NC(=O)[C@H](CCC(=O)O)NC(=O)[C@H](C)NC(=O)[C@H](CC(C)C)NC(=O)[C@H](CCC(N)=O)NC(=O)[C@H](CCC(=O)O)NC(=O)[C@H](CCCN)NC(=O)[C@H](C)NC(=O)[C@H](CCSC)NC(=O)[C@H](CCC(=O)O)NC(=O)[C@H](CC(C)C)NC(=O)[C@@H](NC(=O)[C@H](CCC(=O)O)NC(=O)[C@H](CCCNC(=N)N)NC(=O)[C@H](CC(C)C)NC(=O)[C@H](CC(C)C)NC(=O)[C@H](Cc1c[nH]cn1)NC(=O)[C@H](Cc1ccccc1)NC(=O)[C@@H](NC(=O)[C@H](CC(C)C)NC(=O)[C@H](CC(=O)O)NC(=O)[C@H](CC(C)C)NC(=O)[C@H](CO)NC(=O)[C@@H](NC(=O)[C@@H]1CCCN1C(=O)[C@@H]1CCCN1C(=O)[C@H](CCC(=O)O)NC(=O)[C@H](CCC(N)=O)NC(=O)[C@@H](N)CO)[C@@H](C)CC)[C@@H](C)O)C(C)C)[C@@H](C)CC)C(N)=O [[Gln^2, Orn^23, Glu^29, Leu^38]-rCRF] (H-SQEPPISLDLTFHLLREVLEMA[Orn]EQLAEQAHSNRKLLEII-NH2) | – | very significant lowering of blood pressure | stimulates the secretion of ACTH and β-END-LI | –
4 | CCCC[C@H](NC(=O)[C@H](CCC(=O)O)NC(=O)[C@H](CC(C)C)NC(=O)[C@H](CCCC)NC(=O)[C@H](CCC(=O)O)NC(=O)[C@H](CCCNC(=N)N)NC(=O)[C@H](CC(C)C)NC(=O)[C@H](CC(C)C)NC(=O)[C@H](Cc1c[nH]cn1)NC(=O)[C@H](Cc1ccccc1)NC(=O)[C@@H](NC(=O)[C@H](CC(C)C)NC(=O)[C@H](CC(=O)O)NC(=O)[C@H](CC(C)C)NC(=O)[C@H](CO)NC(=O)[C@@H](NC(=O)[C@@H]1CCCN1)[C@@H](C)CC)[C@@H](C)O)C(=O)N[C@@H](C)C(=O)N[C@@H](CCCNC(=N)N)C(=O)N[C@@H](C)C(=O)N[C@@H](CCC(=O)O)C(=O)N[C@@H](CCC(N)=O)C(=O)N[C@@H](CCC(=O)O)C(=O)N[C@@H](C)C(=O)N[C@@H](CCC(=O)O)C(=O)N[C@@H](CCC(N)=O)C(=O)N[C@@H](C)C(=O)N[C@@H](C)C(=O)N[C@@H](CC(C)C)C(=O)N[C@@H](CC(N)=O)C(=O)N[C@@H](CCCNC(=N)N)C(=O)N[C@@H](CC(C)C)C(=O)N[C@@H](CC(C)C)C(=O)N[C@@H](CC(C)C)C(=O)N[C@@H](CCC(=O)O)C(=O)N[C@@H](CCC(=O)O)C(=O)N[C@@H](C)C(N)=O [[Nle^18,21,Arg^23]-AHC(5-41)] (H-PISLDLTFHLLRE[Nle]LE[Nle]ARAEQEAEQAALNRLLLEEA-NH2) | – | very significant lowering of blood pressure | stimulates the secretion of ACTH and β-END-LI | –
5 | CCCC[C@H](NC(=O)[C@H](CCC(=O)O)NC(=O)[C@H](CC(C)C)NC(=O)[C@H](CCCC)NC(=O)[C@H](CCC(=O)O)NC(=O)[C@H](CCCNC(=N)N)NC(=O)[C@H](CC(C)C)NC(=O)[C@H](CC(C)C)NC(=O)[C@H](Cc1c[nH]cn1)NC(=O)[C@H](Cc1ccccc1)NC(=O)[C@@H](NC(=O)[C@H](CC(C)C)NC(=O)[C@H](CC(=O)O)NC(=O)[C@H](CC(C)C)NC(=O)[C@H](CO)NC(=O)[C@@H](N)[C@@H](C)CC)[C@@H](C)O)C(=O)N[C@@H](C)C(=O)N[C@@H](CCCCN)C(=O)N[C@@H](C)C(=O)N[C@@H](CCC(=O)O)C(=O)N[C@@H](CCC(N)=O)C(=O)N[C@@H](CCC(=O)O)C(=O)N[C@@H](C)C(=O)N[C@@H](CCC(=O)O)C(=O)N[C@@H](CCC(N)=O)C(=O)N[C@@H](C)C(=O)N[C@@H](C)C(=O)N[C@@H](CC(C)C)C(=O)N[C@@H](CC(N)=O)C(=O)N[C@@H](CCCNC(=N)N)C(=O)N[C@@H](CCCNC(=N)N)C(=O)N[C@@H](CC(C)C)C(=O)N[C@@H](CC(C)C)C(=O)N[C@@H](CCC(=O)O)C(=O)N[C@@H](CCC(=O)O)C(=O)N[C@@H](C)C(N)=O [[Nle^18,21,Arg^36]-AHC(6-41)] (H-ISLDLTFHLLRE[Nle]LE[Nle]AKAEQEAEQAALNRRLLEEA-NH2) | – | very significant lowering of blood pressure | stimulates the secretion of ACTH and β-END-Li | –
6 | CCCC[C@H](NC(=O)[C@H](CCC(=O)O)NC(=O)[C@H](CCCNC(=N)N)NC(=O)[C@H](CC(C)C)NC(=O)[C@H](CC(C)C)NC(=O)[C@H](Cc1c[nH]cn1)NC(=O)[C@H](Cc1ccccc1)NC(=O)[C@@H](NC(=O)[C@H](CC(C)C)NC(=O)[C@H](CC(=O)O)NC(=O)[C@H](CC(C)C)NC(=O)[C@H](CO)NC(=O)[C@@H](NC(=O)[C@@H]1CCCN1C(=O)[C@@H]1CCCN1C(=O)[C@H](CCC(=O)O)NC(=O)[C@@H](N)CCC(N)=O)[C@@H](C)CC)[C@@H](C)O)C(=O)N[C@@H](CC(C)C)C(=O)N[C@@H](CCC(=O)O)C(=O)N[C@@H](CCSC)C(=O)N[C@H](C(=O)N[C@@H](CCCCN)C(=O)N[C@@H](C)C(=O)N[C@@H](CC(=O)O)C(=O)N[C@@H](CCC(N)=O)C(=O)N[C@@H](CC(C)C)C(=O)N[C@@H](C)C(=O)N[C@@H](CCC(N)=O)C(=O)N[C@@H](CCC(N)=O)C(=O)N[C@@H](C)C(=O)N[C@@H](Cc1c[nH]cn1)C(=O)N[C@@H](CO)C(=O)N[C@@H](CC(N)=O)C(=O)N[C@@H](CCCNC(=N)N)C(=O)N[C@@H](CCCCN)C(=O)N[C@@H](Cc1ccc(O)cc1)C(=O)N[C@@H](CC(C)C)C(=O)N[C@@H](CC(=O)O)C(=O)N[C@@H](CCC(=O)O)C(=O)N[C@@H](C)C(N)=O)[C@@H](C)O [[Nle^18,Tyr^37,Glu^40]-oCRF(2-41)] (H-QEPPISLDLTFHLLRE[Nle]LEMTKADQLAQQAHSNRKYLDEA-NH2) | – | very significant lowering of blood pressure | stimulates the secretion of ACTH and β-END-LI | –
7 | Ac-GEEPPISLDLTFHLLREVLEMARAEQLAQQAHLNRKLMEEI-NH2 [[Acetyl-Gly^1, Leu^33, Glu^40]-rCRF] | – | very significant lowering of blood pressure | stimulates the secretion of ACTH and β-END-LI | –
8 | Ac-PPISLDLTFHLLREVLEMARAEQLAEQAHSNRKYMEEI-NH2 | – | very significant lowering of blood pressure | stimulates the secretion of ACTH and β-END-LI | to a greater extent than rCRF
9 | H-PPISIDLSLELLRKMIEIAKQEKEKEQAANNRLLMDTI-NH2 | – | very significant lowering of blood pressure | stimulates the secretion of ACTH and β-END-LI | –
10 | H-PPISLDLTFHLLREVLEMARAEQLAQQAHLNRKLMEQI-NH2 | – | very significant lowering of blood pressure | stimulates the secretion of ACTH and β-END-LI | –
11 | H-SEEPPISLDLTFHLLREVLEMTRAEQLAEQAHSNRKLMEEI-NH2 [[Thr^22, Glu^29,40]-rCRF] | – | very significant lowering of blood pressure | stimulates the secretion of ACTH and β-END-LI | –
